Earlier results on one substance are cited in paper PMC6472032 (Marine Drugs, 2019).

The conditions of the data set: in vivo; cited from earlier work.

As to desmopressin, the mean terminal half-life is given as 3.7 h.
